Measured values published in ChEMBL document CHEMBL1201862, “PubChem BioAssay data set” (2004).
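Where inhibition never reached the appropriate level, the endpoint shown equals the highest concentration tested. Otherwise, values were interpolated linearly from a five-concentration, 48-hour dose response in 96-well plates. Abbreviation: GI50, concentration required for 50% inhibition of growth.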 Activity calls are given as the source filed them. Cut-off read from the data, not from the text of the source: active = GI50 up to about 1.1 µM and inactive = higher.

Key:
Experiment in all cases: growth of human tumour cells (NCI), 48 h
CAKI-1 = tested on: CAKI-1
HCC 2998 = tested on: HCC 2998
HL-60 = tested on: HL-60
IGROV-1 = tested on: IGROV-1
KM12 = tested on: KM12
MDA-MB-231 = tested on: MDA-MB-231
MDA-N = tested on: MDA-N
Malme-3M = tested on: Malme-3M
NCI-H23 = tested on: NCI-H23
NCI-H460 = tested on: NCI-H460
OVCAR-3 = tested on: OVCAR-3
OVCAR-4 = tested on: OVCAR-4
OVCAR-8 = tested on: OVCAR-8
PC-3 = tested on: PC-3
SF-539 = tested on: SF-539
SK-MEL-5 = tested on: SK-MEL-5
SNB-19 = tested on: SNB-19
SR = tested on: SR
T47D = tested on: T47D
UO-31 = tested on: UO-31

Row | SMILES | GI50 (CAKI-1) | GI50 (HCC 2998) | GI50 (HL-60) | GI50 (IGROV-1) | GI50 (KM12) | GI50 (MDA-MB-231) | GI50 (MDA-N) | GI50 (Malme-3M) | GI50 (NCI-H23) | GI50 (NCI-H460) | GI50 (OVCAR-3) | GI50 (OVCAR-4) | GI50 (OVCAR-8) | GI50 (PC-3) | GI50 (SF-539) | GI50 (SK-MEL-5) | GI50 (SNB-19) | GI50 (SR) | GI50 (T47D) | GI50 (UO-31)
1 | CN(C)CCCN1c2ccccc2Sc2ccc3ccccc3c21 | 5.13 µM (inactive) | 1.53 µM (inactive) | < 0.01 µM (active) | 8.67 µM (inactive) | 6.58 µM (inactive) | 3.15 µM (inactive) | 4.12 µM (inactive) | 6.49 µM (inactive) | 14.3 µM (inactive) | 2.79 µM (inactive) | 8.49 µM (inactive) | 5.35 µM (inactive) | 12.7 µM (inactive) | 3.75 µM (inactive) | 16.1 µM (inactive) | 4.17 µM (inactive) | 14.8 µM (inactive) | 1.09 µM (active) | 2.05 µM (inactive) | 4.36 µM (inactive)
2 | O=C(O)c1c(CC(Cc2ccc3c(c2)CCCC3)C(=O)O)ccc2c1CCCC2 (stereo not drawn) | > 100 µM (inactive) | > 100 µM (inactive) | > 100 µM (inactive) | > 100 µM (inactive) | > 100 µM (inactive) | > 100 µM (inactive) | > 100 µM (inactive) | > 100 µM (inactive) | > 100 µM (inactive) | > 100 µM (inactive) | > 100 µM (inactive) | – | > 100 µM (inactive) | > 100 µM (inactive) | > 100 µM (inactive) | > 100 µM (inactive) | > 100 µM (inactive) | > 100 µM (inactive) | > 100 µM (inactive) | > 100 µM (inactive)
3 | Cc1cc(S(=O)(=O)[N-]/C(=N/S(=O)(=O)c2cc(Cl)sc2Cl)[n+]2ccc(N(C)C)cc2)c(S)cc1Cl | 60.3 µM (inactive) | 60.7 µM (inactive) | > 100 µM (inactive) | > 100 µM (inactive) | > 100 µM (inactive) | 77.3 µM (inactive) | 34 µM (inactive) | – | 34.9 µM (inactive) | 44.3 µM (inactive) | 96.6 µM (inactive) | 37.2 µM (inactive) | 40.8 µM (inactive) | 53.8 µM (inactive) | 46.6 µM (inactive) | 77.8 µM (inactive) | – | 39.4 µM (inactive) | > 100 µM (inactive) | 23.2 µM (inactive)
4 | N#C[C@@H](c1nc2ccccc2s1)c1ncccc1[N+](=O)[O-] | 19 µM (inactive) | 10.6 µM (inactive) | > 10 µM (inactive) | 5.07 µM (inactive) | 10.6 µM (inactive) | 7.83 µM (inactive) | 7.46 µM (inactive) | 2.87 µM (inactive) | 3.7 µM (inactive) | 5.62 µM (inactive) | 2.48 µM (inactive) | 7.91 µM (inactive) | 9.06 µM (inactive) | 5.16 µM (inactive) | – | 3.24 µM (inactive) | 3.94 µM (inactive) | 4.67 µM (inactive) | 4.18 µM (inactive) | 3.99 µM (inactive)
5 | C[C@]12CC[C@@H]3c4cc(I)c(O)cc4CC[C@H]3[C@@H]1CC[C@@H]2O | 8.63 µM (inactive) | 8.81 µM (inactive) | 5.65 µM (inactive) | 5.93 µM (inactive) | 3.27 µM (inactive) | 5.25 µM (inactive) | 1.74 µM (inactive) | 9.89 µM (inactive) | 9.89 µM (inactive) | 3.64 µM (inactive) | 3.43 µM (inactive) | 16.5 µM (inactive) | 6.52 µM (inactive) | 10.7 µM (inactive) | – | 3.18 µM (inactive) | 7.33 µM (inactive) | 3.1 µM (inactive) | 8.55 µM (inactive) | 5.74 µM (inactive)
6 | CCNC(=S)NNC(=O)c1ccccc1Nc1ccccc1C(=O)NNC(=S)NCC | – | > 100 µM (inactive) | > 100 µM (inactive) | > 100 µM (inactive) | > 100 µM (inactive) | > 100 µM (inactive) | > 100 µM (inactive) | > 100 µM (inactive) | > 100 µM (inactive) | > 100 µM (inactive) | > 100 µM (inactive) | > 100 µM (inactive) | > 100 µM (inactive) | > 100 µM (inactive) | – | > 100 µM (inactive) | > 100 µM (inactive) | > 100 µM (inactive) | > 100 µM (inactive) | > 100 µM (inactive)
7 | COc1ccc(C(OCC2OC(n3cc(C)c(=O)[nH]c3=O)CC2n2cc(Cn3cc(Br)c(=O)[nH]c3=O)nn2)(c2ccccc2)c2ccccc2)cc1 (stereo not drawn) | > 100 µM (inactive) | > 100 µM (inactive) | 2.07 µM (inactive) | 38.5 µM (inactive) | 50.9 µM (inactive) | > 100 µM (inactive) | 21 µM (inactive) | > 100 µM (inactive) | > 100 µM (inactive) | – | > 100 µM (inactive) | > 100 µM (inactive) | > 100 µM (inactive) | 32.5 µM (inactive) | > 100 µM (inactive) | > 100 µM (inactive) | > 100 µM (inactive) | > 100 µM (inactive) | > 100 µM (inactive) | > 100 µM (inactive)
8 | Cn1cnc([N+](=O)[O-])c1SCC(=O)O | > 100 µM (inactive) | > 100 µM (inactive) | > 100 µM (inactive) | > 100 µM (inactive) | > 100 µM (inactive) | > 100 µM (inactive) | > 100 µM (inactive) | > 100 µM (inactive) | > 100 µM (inactive) | > 100 µM (inactive) | > 100 µM (inactive) | > 100 µM (inactive) | > 100 µM (inactive) | > 100 µM (inactive) | – | > 100 µM (inactive) | > 100 µM (inactive) | > 100 µM (inactive) | > 100 µM (inactive) | > 100 µM (inactive)
9 | CSc1ncnc2c1cnn2Cc1cn(CCCCO)nn1 | > 100 µM (inactive) | > 100 µM (inactive) | – | > 100 µM (inactive) | > 100 µM (inactive) | > 100 µM (inactive) | > 100 µM (inactive) | > 100 µM (inactive) | > 100 µM (inactive) | > 100 µM (inactive) | > 100 µM (inactive) | > 100 µM (inactive) | > 100 µM (inactive) | > 100 µM (inactive) | > 100 µM (inactive) | > 100 µM (inactive) | > 100 µM (inactive) | > 100 µM (inactive) | > 100 µM (inactive) | > 100 µM (inactive)
10 | Cc1ccc2c(=O)[nH]sc2c1 | 5.4 µM (inactive) | 21.2 µM (inactive) | 13.1 µM (inactive) | 19.7 µM (inactive) | – | 17.3 µM (inactive) | 14 µM (inactive) | 20.4 µM (inactive) | 17.7 µM (inactive) | 53.3 µM (inactive) | 17.8 µM (inactive) | 27.9 µM (inactive) | 17.3 µM (inactive) | 15.7 µM (inactive) | 12.6 µM (inactive) | 12.9 µM (inactive) | 39.4 µM (inactive) | 3.69 µM (inactive) | 14.8 µM (inactive) | –
11 | O=C(O)/C=C/c1ccc(Oc2ccccc2C(=O)O)o1 | > 10 µM (inactive) | > 10 µM (inactive) | > 10 µM (inactive) | > 10 µM (inactive) | > 10 µM (inactive) | > 10 µM (inactive) | > 10 µM (inactive) | > 10 µM (inactive) | > 10 µM (inactive) | – | – | > 10 µM (inactive) | > 10 µM (inactive) | > 10 µM (inactive) | > 10 µM (inactive) | > 10 µM (inactive) | > 10 µM (inactive) | > 10 µM (inactive) | > 10 µM (inactive) | –
12 | O=C1CSc2nnc(CCCCCCCCc3nnc4n3NC(=O)CS4)n2N1 | > 100 µM (inactive) | > 100 µM (inactive) | 31.5 µM (inactive) | 42.6 µM (inactive) | > 100 µM (inactive) | 69.3 µM (inactive) | > 100 µM (inactive) | 31.9 µM (inactive) | > 100 µM (inactive) | > 100 µM (inactive) | > 100 µM (inactive) | > 100 µM (inactive) | 27.4 µM (inactive) | > 100 µM (inactive) | 48.9 µM (inactive) | – | 32.1 µM (inactive) | 30.8 µM (inactive) | > 100 µM (inactive) | > 100 µM (inactive)
13 | O=C1/C(=C/c2ccc([N+](=O)[O-])cc2)Oc2cc(O)ccc21 | 23.6 µM (inactive) | 34.6 µM (inactive) | 17.5 µM (inactive) | 29.1 µM (inactive) | 36.5 µM (inactive) | 26.5 µM (inactive) | 23.2 µM (inactive) | – | 42.1 µM (inactive) | 31.5 µM (inactive) | 27.5 µM (inactive) | 39.6 µM (inactive) | 29.6 µM (inactive) | 29.3 µM (inactive) | 23.4 µM (inactive) | 21 µM (inactive) | 29.1 µM (inactive) | 16.9 µM (inactive) | 28.6 µM (inactive) | 17.7 µM (inactive)
14 | CC1CC(C)CC(C)C(O)/C(C#N)=C/C=C/CC(C2CCCC2C(=O)O)OC(=O)CC(O)C(C)C1 (stereo not drawn) | < 0.01 µM (active) | 0.0151 µM (active) | 0.0137 µM (active) | < 0.0118 µM (active) | – | < 0.0109 µM (active) | < 0.0112 µM (active) | 0.0286 µM (active) | – | 0.0284 µM (active) | – | 0.0424 µM (active) | 0.0192 µM (active) | 0.0251 µM (active) | < 0.01 µM (active) | – | 0.0135 µM (active) | < 0.0116 µM (active) | < 0.01 µM (active) | 0.012 µM (active)
15 | O=C(O)c1ccc(Nc2nc3ccccc3nc2-c2cccs2)cc1 | 63.5 µM (inactive) | > 100 µM (inactive) | > 100 µM (inactive) | 73.5 µM (inactive) | 64.1 µM (inactive) | > 100 µM (inactive) | > 100 µM (inactive) | 60.3 µM (inactive) | > 100 µM (inactive) | 71 µM (inactive) | > 100 µM (inactive) | 41.8 µM (inactive) | 54.2 µM (inactive) | > 100 µM (inactive) | > 100 µM (inactive) | > 100 µM (inactive) | – | 65.9 µM (inactive) | 47 µM (inactive) | 63.5 µM (inactive)
